Experimental data as given in the supplement of paper PMC10307832.

Tests used:
Assay in all cases: relative viability (nuclei count vs DMSO), 5 days (fraction); higher = more cells survive
XMD14-99 + Decitabine = compound: CN1CCN(CC1)C2=CC(=C(C=C2)NC3=NC(=C(S3)C(=O)C4=C(C=CC=C4Cl)Cl)N)OC [XMD14-99] + Nc1ncn([C@H]2C[C@H](O)[C@@H](CO)O2)c(=O)n1 [Decitabine] (partner 2 µM)
How it was run: (§1)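 Lung cancer cell lines, seeded in 1536-well plates, were treated the following day by pin tool with a single drug or with five library-drug doses (not always all listed) in √10 steps on top of a fixed anchor-drug dose. Cells were fixed and nuclei stained in one step after 5 days, and nuclei were counted. Relative viability is the nuclei count for treated wells divided by that for vehicle wells, reported as medians of duplicate plates.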

AZD1208 + Navitoclax = compound: N[C@@H]1CCCN(c2c(/C=C3\SC(=O)NC3=O)cccc2-c2ccccc2)C1 [AZD1208] + CC1(C)CCC(c2ccc(Cl)cc2)=C(CN2CCN(c3ccc(C(=O)NS(=O)(=O)c4ccc(N[C@H](CCN5CCOCC5)CSc5ccccc5)c(S(=O)(=O)C(F)(F)F)c4)cc3)CC2)C1 [Navitoclax] (partner 0.5 µM)
How it was run: as §1

XMD14-99 + Trametinib = compound: CN1CCN(CC1)C2=CC(=C(C=C2)NC3=NC(=C(S3)C(=O)C4=C(C=CC=C4Cl)Cl)N)OC [XMD14-99] + CC(=O)Nc1cccc(-n2c(=O)n(C3CC3)c(=O)c3c(Nc4ccc(I)cc4F)n(C)c(=O)c(C)c32)c1 [Trametinib] (partner 0.02 µM)
How it was run: as §1

XMD14-99 + Phenformin = compound: CN1CCN(CC1)C2=CC(=C(C=C2)NC3=NC(=C(S3)C(=O)C4=C(C=CC=C4Cl)Cl)N)OC [XMD14-99] + N=C(N)NC(=N)NCCc1ccccc1 [Phenformin] (partner 250 µM)
How it was run: as §1

Cell Line | relative viability (XMD14-99 + Decitabine; first compound 0.08 µM) | relative viability (XMD14-99 + Decitabine; first compound 0.8 µM) | relative viability (XMD14-99 + Decitabine; first compound 2.53 µM) | relative viability (XMD14-99 + Decitabine; first compound 8 µM) | relative viability (AZD1208 + Navitoclax; first compound 0.08 µM) | relative viability (AZD1208 + Navitoclax; first compound 0.253 µM) | relative viability (AZD1208 + Navitoclax; first compound 0.8 µM) | relative viability (AZD1208 + Navitoclax; first compound 2.53 µM) | relative viability (AZD1208 + Navitoclax; first compound 8 µM) | relative viability (XMD14-99 + Trametinib; first compound 0.08 µM) | relative viability (XMD14-99 + Trametinib; first compound 0.8 µM) | relative viability (XMD14-99 + Trametinib; first compound 2.53 µM) | relative viability (XMD14-99 + Trametinib; first compound 8 µM) | relative viability (XMD14-99 + Phenformin; first compound 0.08 µM) | relative viability (XMD14-99 + Phenformin; first compound 0.8 µM) | relative viability (XMD14-99 + Phenformin; first compound 2.53 µM) | relative viability (XMD14-99 + Phenformin; first compound 8 µM)
LK-2 | 0.258 | 0.297 | 0.328 | 0.21 | 0.77 | 0.523 | 0.494 | 0.433 | 0.347 | 0.571 | 0.738 | 0.706 | 0.646 | 0.363 | 0.368 | 0.423 | 0.215
201T | 0.852 | 0.833 | 0.833 | 0.741 | 1.24 | 1.23 | 1.25 | 1.24 | 1.31 | 0.693 | 0.709 | 0.691 | 0.664 | 0.449 | 0.441 | 0.422 | 0.41
HCC-44 | 1.01 | 0.902 | 0.898 | 0.911 | 0.91 | 1.07 | 0.94 | 1.04 | 0.899 | 1.02 | 1.04 | 1.11 | 1.01 | 0.261 | 0.16 | 0.303 | 0.168
NCI-H647 | 0.378 | 0.41 | 0.475 | 0.364 | 0.934 | 0.974 | 1.14 | 1.01 | 0.801 | 0.456 | 0.495 | 0.582 | 0.442 | 0.526 | 0.494 | 0.6 | 0.489
H3255 | 0.584 | 0.674 | 0.546 | 0.513 | 0.511 | 0.546 | 0.455 | 0.462 | 0.472 | 0.563 | 0.67 | 0.54 | 0.488 | 0.384 | 0.398 | 0.337 | 0.335
NCI-H2085 | 0.561 | 0.529 | 0.523 | 0.45 | 1.02 | 1.29 | 1.13 | 1.14 | 1.02 | 0.49 | 0.621 | 0.498 | 0.485 | 0.668 | 0.68 | 0.681 | 0.572
NCI-H2347 | 0.584 | 0.623 | 0.577 | 0.522 | 0.917 | 0.94 | 0.685 | 0.794 | 0.716 | 0.278 | 0.288 | 0.304 | 0.269 | 0.529 | 0.422 | 0.406 | 0.251
NCI-H1944 | 0.48 | 0.458 | 0.414 | 0.372 | 1.05 | 1.01 | 0.977 | 1.01 | 0.832 | 0.446 | 0.374 | 0.381 | 0.338 | 0.194 | 0.203 | 0.173 | 0.157
NCI-H1793 | 0.502 | 0.521 | 0.473 | 0.427 | 0.336 | 0.47 | 0.354 | 0.469 | 0.364 | 0.462 | 0.38 | 0.39 | 0.268 | 0.367 | 0.337 | 0.249 | 0.288
